This is an account of results in article PMC8427973, “Regulation of the HTRA2 Protease Activity by an Inhibitory Antibody-Derived Peptide Ligand and the Influence on HTRA2-Specific Protein Interaction Networks in Retinal Tissues” (Biomedicines, 2021).

Experiment [1] concerns the target T1, recombinant HTRA2 protein (Homo sapiens, UniProt O43464).
T1 construct: 6xHis (C); purchased Novoprotein Scientific INC., Summit, NJ, USA
T1 sequence (O43464 134-458): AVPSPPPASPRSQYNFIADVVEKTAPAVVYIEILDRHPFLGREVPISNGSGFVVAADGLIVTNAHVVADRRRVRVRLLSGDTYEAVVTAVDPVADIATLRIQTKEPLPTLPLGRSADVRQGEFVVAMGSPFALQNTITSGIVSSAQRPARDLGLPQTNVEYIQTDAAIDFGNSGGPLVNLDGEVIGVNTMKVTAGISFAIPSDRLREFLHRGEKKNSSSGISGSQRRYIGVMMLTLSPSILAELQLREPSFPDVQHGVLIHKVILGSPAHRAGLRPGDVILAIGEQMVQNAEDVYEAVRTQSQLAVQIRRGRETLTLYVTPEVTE
Briefly: HTRA2 protease activity assay with fluorescent H2-optimal substrate. The format is biochemical. The settings on record: for Inhibitory effect on HTRA2 after targeted alanine substitution in the CDR binding motif (mutational analysis): protease activity assay, Figure S1; for Increase of the average degradation rate of the optimal substrate H2 with respect to the untreated positive control: 100 nM HTRA2, 10 µM substrate, RT; for Average degradation rate of the optimal substrate H2 by HTRA2 (enzymatic reaction rate per minute): 100 nM recombinant HTRA2, 10 µM H2-optimal substrate, pH 8.0, RT, fluorescence ex 320 nm / em 405 nm, untreated positive control 229 U/min. The procedure:
The HTRA2 protease activity assay was performed as described by Martins et al. (2003), but with some slight modifications. The experiment was performed with 100 nM recombinant HTRA2 protein (Novoprotein Scientific INC., Summit, NJ, USA) in a protease assay buffer (50 mM tris(hydroxymethyl)-aminomethane (TRIS), 0.5 mM ethylenediaminetetraacetic acid (EDTA), and 1 mM dithiothreitol (DTT), pH 8.0) containing 10 µM H2-optimal substrate (Innovagen AB, Lund, Sweden). The H2-optimal substrate is commonly used to measure the protease activity of HTRA2 and consists of a structural quencher and a fluorophore unit. The cleavage of the substrate leads to the disruption of the quencher/fluorophore complex and the degradation rate can be measured by fluorescence. The different sample groups were treated with 50 µM PDZ-Opt, 50 µM PDZ-Sub, 50 µM synthetic CDR1 peptide, or 30 µM UCF-101, respectively. The drug compound UCF-101 is an inhibitor of the catalytic domain of HTRA2 and was purchased from Sigma Aldrich (Darmstadt, Germany). The concentrations of the peptide ligands for the HTRA2 protease activity assay were chosen from the previous publication. The concentration of UCF-101 was determined to be optimal from the preliminary experiments. In addition, a positive control containing only 100 nM recombinant HTRA2 and a negative control (only protease assay buffer) were included in this experiment. All of the sample groups were incubated for 1 h at 37 °C to determine the maximum degradation rate of HTRA2. For the analysis of the enzymatic reaction rate of HTRA2, all samples were measured subsequently after the addition of the 10 µM H2-optimal substrate at RT. Fluorescence was monitored on a Spark® 10 M multimode microplate-reader (Tecan Trading AG, Männedorf, Switzerland) with an excitation at 320 nm and a fluorescence emission at 405 nm. The fluorescence background of the substrate was substracted from the fluorescence intensities of the different the sample groups to normalize the data.
To determine the proteolytic activity of HTRA2 we used the fluorescent H2 optimal substrate developed by Martins et al. (2003). The optimal substrate H2 encoded a short specific amino acid sequence, which is preferentially cleaved by HTRA2, and was also modified with a fluorescent dye and quencher. […] Under physiological conditions, the proteolytic activity of HTRA2 is suppressed by the C-terminal PDZ domain, which blocks the access of potential substrates to the catalytic domain by steric hindrance. The binding of short hydrophobic polypeptides to the allosteric PDZ domain can induce specific conformational changes of HTRA2 and are able to regulate its proteolytic activity. Therefore, Martins et al. (2003) specifically designed the peptide ligands PDZ-Opt (GQYYFV) and PDZ-Sub (GGIRRV), which are known to increase the proteolytic activity of HTRA2 in this assay.

For experiment [2], the system named is HTRA2-PDZ domain. On the set-up: method as in PMID 23457469. The settings on record: cited from earlier work.
For experiment [3], the target named is Serine protease HTRA2, mitochondrial (recombinant, 6xHis-tag) (UniProt O43464).

For the molecule “ASGYTATNYGLSWVR [F(6), CDR peptide for the mutational analysis, alanine at position 6]”, in experiment [1], the “Inhibitory effect on HTRA2 after targeted alanine substitution in the CDR binding motif (mutational analysis)” value (“Inhibitory effect on HTRA2” below) is “particular important presence of Y(4) and F(6) for the inhibitory effect on HTRA2”.

Take “GGIRRV [PDZ-Sub, a peptide generated by HTRA2 auto-proteolysis, reference compound]”: in experiment [1] (50 µM peptide), the “Increase of the average degradation rate of the optimal substrate H2 with respect to the untreated positive control” value is listed as “up to 18%” and the “Average degradation rate of the optimal substrate H2 by HTRA2 (enzymatic reaction rate per minute)” value is on record as 272 U/min.

Regarding “ASGATFTNYGLSWVR [Y(4), CDR peptide for the mutational analysis, alanine at position 4]”, the “Inhibitory effect on HTRA2” value in experiment [1] is “particular important presence of Y(4) and F(6) for the inhibitory effect on HTRA2”.

In the case of “ASGYAFTNYGLSWVR [T(5) to A(5), CDR peptide for the mutational analysis, alanine at position 5]”, the “Inhibitory effect on HTRA2” value in experiment [1] is listed as “significantly strengthened the inhibitory effect”.

“YVWAGSTLSRTGNFY [scrambled CDR, scrambled CDR peptide analog]”: the “Maximum degradation rate of the H2 optimal substrate by HTRA2” value in experiment [1] (50 µM peptide, 1 h at 37 °C, n = 3, Figure 1C) is reported as “unable to induce the suppression of the HTRA2 protease activity”.

For the molecule AGYTGFV, in experiment [2], the “Glide score for binding to the HTRA2-PDZ domain” value is -7.903 kcal/mol.

Turning to GQYYFV [PDZ-Opt, reference compound], in experiment [1] (50 µM peptide), the “Increase of the average degradation rate of the optimal substrate H2 with respect to the untreated positive control” value is given as “up to 50%” and the “Average degradation rate of the optimal substrate H2 by HTRA2 (enzymatic reaction rate per minute)” value was 345 U/min.

B1: PDZ-Opt (peptide)
peptide: GQYYFV
With B1, in experiment [3], the average degradation rate of the fluorescent H2 optimal substrate (10 µM) by 100 nM HTRA2 with 50 µM PDZ-Opt; untreated HTRA2 229 U/min (increase up to 50%) worked out at 345 U/min.

B2: PDZ-Sub (peptide)
peptide: GGIRRV
B2: the average degradation rate of the fluorescent H2 optimal substrate (10 µM) by 100 nM HTRA2 with 50 µM PDZ-Sub; untreated HTRA2 229 U/min (increase up to 18%) in experiment [3] came out at 272 U/min.
